# Experimental data as given in patent US9765035B2 (priority 2013, dated 2017).
# Where two headings read alike, the source gives them in different places.
# Biological target: human PRMT6 (Homo sapiens, UniProt Q96LA8)
# Experiment: biochemical
# Excerpt: General Materials. S-adenosylmethionine (SAM), S-adenosylhomocysteine (SAH), bicine, Tween20, dimethylsulfoxide (DMSO), bovine skin gelatin (BSG), sodium butyrate and Tris(2-carboxyethyl)phosphine hydrochloride solution (TCEP) were purchased from Sigma-Aldrich at the highest level of purity possible. ^3H-SAM was purchase from American Radiolabeled Chemicals with a specific activity of 80 Ci/mmol. 384-well streptavidin Flashplates were purchased from PerkinElmer.
# Substrates. Peptide representative of human histone H4 residues 36-50 was synthesized with an N-terminal linker-affinity tag motif and a C-terminal amide cap by 21st Century Biochemicals. The peptide was purified by high-performance liquid chromatography (HPLC) to greater than 95% purity and confirmed by liquid chromatography mass spectrometry (LC-MS). The sequence was Biot-Ahx-[…]-amide and contained a monomethylated lysine at position 44 (SEQ ID NO.:5).
# Molecular Biology: Full-length human PRMT6 (NM_018137.2) transcript clone was amplified from an HEK 293 cDNA library, incorporating a flanking 5′ sequence encoding a FLAG tag ([…]) (SEQ ID NO.:6) fused directly to Ser 2 of PRMT6 and a 3′ sequence encoding a hexa His sequence (HHHHHH) (SEQ ID NO.: 17) fused directly to Asp 375. The amplified gene was subcloned into pFastBacMam (Viva Biotech).
# Protein Expression. Recombinant baculovirus were generated according to Bac-to-Bac kit instructions (Life Technologies). […] Infections were carried out at 37° C. for 48 hours, harvested by centrifugation, and stored at −80° C. for purification.
# Protein Purification. […] Column was washed with 20 mM imidazole in the same buffer and Flag-PRMT6-His was eluted with 150 mM imidazole. Pooled fractions were dialysed against buffer Ni-A and further purified by anti-flag M2 affinity chromatography. Flag-PRMT6-His was eluted with 200 ug/ml FLAG peptide in the same buffer. Pooled fractions were dialysed in 20 mM Tris, 150 mM NaCl, 10% glycerol and 5 mM β-mercaptoethanol, pH 7.8. The purity of recovered protein was 95%.
# General Procedure for PRMT6 Enzyme Assays on Peptide Substrates. The assays were all performed in a buffer consisting of 20 mM Bicine (pH=7.6), 1 mM TCEP, 0.005% BSG, and 0.002% Tween 20, prepared on the day of use. Compounds in 100% DMSO (1 ul) were spotted into a polypropylene 384-well V-bottom plates (Greiner) using a Platemate Plus outfitted with a 384-channel head (Thermo Scientific). DMSO (1 ul) was added to Columns 11, 12, 23, 24, rows A-H for the maximum signal control and 1 ul of SAH, a known product and inhibitor of PRMT6, was added to columns 11, 12, 23, 24, rows I-P for the minimum signal control. A cocktail (40 ul) containing the PRMT6 enzyme was added by Multidrop Combi (Thermo-Fisher). The compounds were allowed to incubate with PRMT6 for 30 min at room temperature, then a cocktail (10 ul) containing SAM and peptide was added to initiate the reaction (final volume=51 ul). The final concentrations of the components were as follows: PRMT6 was 1 nM, ^3H-SAM was 200 nM, non-radiolabeled SAM was 250 nM, peptide was 75 nM, SAH in the minimum signal control wells was 1 mM, and the DMSO concentration was 2%. The assays were stopped by the addition of non-radiolabeled SAM (10 ul) to a final concentration of 400 uM, which dilutes the ^3H-SAM to a level where its incorporation into the peptide substrate is no longer detectable. 50 ul of the reaction in the 384-well polypropylene plate was then transferred to a 384-well Flashplate and the biotinylated peptides were allowed to bind to the streptavidin surface for at least 1 hour before being washed once with 0.1% Tween20 in a Biotek EL×405 plate washer. The plates were then read in a PerkinElmer TopCount plate reader to measure the quantity of ^3H-labeled peptide bound to the Flashplate surface, measured as disintegrations per minute (dpm) or alternatively, referred to as counts per minute (cpm). […]
# [1] = biochemical evaluation, peptide substrate, read-out: PRMT6 IC50
# [2] = single experiment or average of multiple experiments, read-out: PRMT6 biochemical evaluation (numerical)
# [3] = PRMT6 biochemical evaluation (numerical), single experiment or average of multiple experiments
# Sequence of human PRMT6 (Q96LA8 with tags, fused parts or gaps): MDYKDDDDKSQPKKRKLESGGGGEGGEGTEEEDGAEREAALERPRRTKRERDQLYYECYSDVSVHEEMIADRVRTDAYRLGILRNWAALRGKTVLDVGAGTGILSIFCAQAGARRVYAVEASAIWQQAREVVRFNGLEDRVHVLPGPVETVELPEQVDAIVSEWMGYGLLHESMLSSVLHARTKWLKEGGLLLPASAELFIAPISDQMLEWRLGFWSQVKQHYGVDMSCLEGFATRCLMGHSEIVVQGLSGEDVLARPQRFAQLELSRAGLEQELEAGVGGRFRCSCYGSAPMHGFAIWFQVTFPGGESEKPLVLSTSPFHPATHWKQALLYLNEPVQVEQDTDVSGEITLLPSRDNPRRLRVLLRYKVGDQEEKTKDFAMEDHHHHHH
SMILES,IC50 [1] [nM],IC50 [2] [nM],IC50 [nM],IC50 [3] [nM]
CNCCN(C)Cc1n[nH]c2ccc(Oc3ccccc3OC(C)C)cc12 [Compound 56],101 to 1000,774,,
"CNCCN(C)Cc1n[nH]c2ccc(N3CCCCC3)cc12 [Compound 46, N^1,N^2-dimethyl-N^1-((5-(piperidin-1-yl)-1H-indazol-3-yl)methyl)ethane-1,2-diamine]",< 100,40.6,,
CNCCN(C)Cc1n[nH]c2ccc(OCc3ccc(C(C)(C)C)cc3)cc12 [Compound 71],< 100,13.1,,
CCCOc1ccc2[nH]nc(CN(C)CCNC)c2c1 [Compound 65],< 100,105,,
CNCCN(C)Cc1n[nH]c2ccc(OCc3ccc(C(F)(F)F)cc3)cc12 [Compound 68],< 100,39.7,,
"CNCCN(C)Cc1n[nH]c2ccc(C3CCCCC3)cc12 [Compound 47, N^1-((5-cyclohexyl-1H-indazol-3-yl)methyl)-N^1,N^2-dimethylethane-1,2-diamine]",< 100,74.3,,
CNCCN(C)Cc1n[nH]c2ccc(OCc3cccc(C(C)(C)C)c3)cc12 [Compound 74],< 100,9.09,,
CNCCN(C)Cc1n[nH]c2ccc(C3=CCCCC3)cc12 [Compound 48],< 100,65.6,,
"CNCCN(C)Cc1n[nH]c2ccc(C(C)C)cc12 [Compound 42, N^1-((5-isopropyl-1H-indazol-3-yl)methyl)-N^1,N^2-dimethylethane-1,2-diamine]",< 100,2340,,
CNCCN(C)Cc1n[nH]c2ccc(OCC3CCCCC3)cc12 [Compound 54],101 to 1000,2330,,
CNCCN(C)Cc1n[nH]c2ccc(Oc3ccc(C)cc3)cc12 [Compound 55],101 to 1000,1020,,
CNCCN(C)Cc1n[nH]c2ccc(OCC3CCOCC3)cc12 [Compound 50],3010 to 10000,45,,
CNCCN(C)Cc1n[nH]c2ccc(Oc3cccc(OC(C)C)c3)cc12 [Compound 67],< 100,56.2,,
CNCCN(C)Cc1nn(C(C)C)c2ccc(OCc3ccc(C#N)cc3)cc12 [Compound 62],101 to 1000,191,,
CNCCN(C)Cc1n[nH]c2ccc(Oc3ccc(OC)cc3)cc12 [Compound 59],,,101 to 1000,306
CCOc1ccc2[nH]nc(CN(C)CCNC)c2c1 [Compound 63],101 to 1000,164,,
CNCCN(C)Cc1n[nH]c2ccc(Oc3ccc(OC(C)C)cc3)cc12 [Compound 61],101 to 1000,236,,
CNCCN(C)Cc1n[nH]c2ccc(C3=CCOCC3)cc12 [Compound 45],< 100,58.1,,

SMILES,IC50 [1] [nM],IC50 [2] [nM],IC50 [nM],IC50 [3] [nM]
"CNCCN(C)Cc1n[nH]c2ccc(C3CCOCC3)cc12 [Compound 44, N^1,N^2-dimethyl-N^1-((5-(tetrahydro-2H-pyran-4-yl)-1H-indazol-3-yl)methyl)ethane-1,2-diamine]",< 100,72,,
CNCCN(C)Cc1n[nH]c2ccc(OCc3ccc(C(N)=O)cc3)cc12 [Compound 69],< 100,34.2,,
CNCCN(C)Cc1n[nH]c2ccc(OCc3cccc(NC(C)=O)c3)cc12 [Compound 70],< 100,15.1,,
CNCCN(C)Cc1n[nH]c2ccc(OCc3cccc(C(F)(F)F)c3)cc12 [Compound 72],< 100,12.7,,
CNCCN(C)Cc1n[nH]c2ccc(OC(C)C)cc12 [Compound 64],< 100,107,,
"CNCCN(C)Cc1n[nH]c2ccc(OC3CCN(C(C)=O)CC3)cc12 [Compound 58, 1-(4-((3-((methyl(2-(methylamino)ethyl)amino)methyl)-1H-indazol-5-yl)oxy)piperidin-1-yl)ethan-1-one]",101 to 1000,447,,
CNCCN(C)Cc1n[nH]c2ccc(Oc3ccc(Cl)cc3)cc12 [Compound 57],101 to 1000,479,,
CNCCN(C)Cc1n[nH]c2ccc(OCc3cccc(C(C)=O)c3)cc12 [Compound 73],< 100,9.49,,
CNCCN(C)Cc1c2cc(OCc3ccc(C#N)cc3)ccc2nn1C1CCOCC1 [Compound 53],1010 to 3000,2550,,
CNCCN(C)Cc1n[nH]c2ccc(OCc3cccc(C(N)=O)c3)cc12 [Compound 66],< 100,56.4,,
"CNCCN(C)Cc1n[nH]c2cccc(OCCCC(O)CO)c12 (stereo not shown) [Compound 41, 5-((3-((methyl(2-(methylamino)ethyl)amino)methyl)-1H-indazol-4-yl)oxy)pentane-1,2-diol]",1010 to 3000,145,,
CNCCN(C)Cc1n[nH]c2ccc(OCC3CCN(C(C)=O)CC3)cc12 [Compound 51],1010 to 3000,> 10000,,
CNCCN(C)Cc1n[nH]c2ccc(Oc3ccccc3C)cc12 [Compound 60],101 to 1000,243,,
CNCCN(C)Cc1n[nH]c2ccc(Oc3ccccc3C(F)(F)F)cc12 [Compound 49],3010 to 10000,51.9,,
"CNCCN(C)Cc1n[nH]c2ccc(N3CCC4(CCCCC4)CC3)cc12 [Compound 43, N^1-((5-(3-azaspiro[5.5]undecan-3-yl)-1H-indazol-3-yl)methyl)-N^1,N^2-dimethylethane-1,2-diamine]",,,< 100,1800
CNCCN(C)Cc1n[nH]c2ccc(OCC3CCCC3)cc12 [Compound 52],1010 to 3000,6020,,
CNCCN(C)Cc1n[nH]c2cccc(OCCC(O)CO)c12 (stereo not shown) [Compound 40],1010 to 3000,223,,
